Data taken from ChEMBL document CHEMBL1649268, “Comparative in vitro activity profile of oritavancin against recent gram-positive clinical isolates” (2009).
Values after ≈ are worked out from the molar mass of the structure shown.

Tested on: Staphylococcus epidermidis
Assay: Antimicrobial activity against oxacillin-resistant Staphylococcus epidermidis clinical isolates by broth microdilution method
Format: functional

Q: For CN[C@H](CC(C)C)C(=O)N[C@H]1C(=O)N[C@@H](CC(N)=O)C(=O)N[C@H]2C(=O)N[C@H]3C(=O)N[C@H](C(=O)N[C@H](C(=O)O)c4cc(O)cc(O)c4-c4cc3ccc4O)[C@H](O)c3ccc(c(Cl)c3)Oc3cc2cc(c3O[C@@H]2O[C@H](CO)[C@@H](O)[C@H](O)[C@H]2O[C@H]2C[C@](C)(N)[C@H](O)[C@H](C)O2)Oc2ccc(cc2Cl)[C@H]1O [VANCOMYCIN], which MIC90 is on record?
A: 2 µg/mL (≈ 1.38 µM)
